# In patent publication US8247530B2, “N-alkylated cyclic peptide melanocortin agonists” (Palatin Technologies, Inc., priority 2005, dated 2012):
# Where a SMILES comes first, the peptide text is derived from it. Bridges are numbered along the chain shown (N, C = ends). [ ]: non-standard residue; d: D form. 1Nal = N[C@@H](Cc1cccc2ccccc12)C(=O)O; Nle = CCCC[C@H](N)C(=O)O
# Legend:
# MC3-R [1] = molecular target: T1, MC3-R (Homo sapiens, UniProt P41968); experiment: Competitive inhibition binding assay using [I125]-NDP-α-MSH, hMC3-R; settings: radioligand [I125]-NDP-α-MSH, HEK-293 membranes; read-out: Ki (NDP-α-MSH) MC3-R
# T1 construct: expressed in transfected cells; host or cells: HEK-293
# Procedure: (§1) The assay tube also contained a chosen concentration of the test peptide of this invention, typically a 1 μM concentration, for determining its efficacy in inhibiting the binding of [I^125]NDP-α-MSH to the receptor.
# (§2) The assay mixture was incubated for 60 minutes at 37° C., then filtered and the membranes washed three times with ice cold phosphate buffered saline. The filter was dried and counted in a gamma counter for remaining radioactivity bound to the membranes. 100% specific binding was defined as the difference in radioactivity (cpm) bound to cell membranes in the absence and presence of 1 μM NDP-α-MSH. […] Each assay was conducted in triplicate. The Ki (nM) of certain peptides of the invention were determined using similar assay protocols and testing peptides over a wider dose range.
# hMC5-R = molecular target: T2, hMC5-R (Homo sapiens, UniProt P33032); experiment: Competitive inhibition binding assay using [I125]-NDP-α-MSH, hMC5-R; settings: radioligand [I125]-NDP-α-MSH, HEK-293 membranes; read-out: Ki (NDP-α-MSH) MC5-R
# T2 construct: expressed in transfected cells; host or cells: HEK-293
# Procedure: as §1, §2
# MC4-R [2] = molecular target: T3, MC4-R (Homo sapiens, UniProt P32245); experiment: Competitive inhibition Ki (AgRP), MC4-R; type: binding; settings: AgRP as competing ligand
# T3 construct: expressed in transfected cells; host or cells: HEK-293
# hMC3-R (HEK-293 cells) = molecular target: T4, hMC3-R (HEK-293 cells) (Homo sapiens, UniProt P41968); experiment: cAMP functional assay for agonist/antagonist status, MC3-R; type: cell-based; settings: for EC50: cAMP accumulation; for agonist/antagonist status as to MC3-R: cAMP assay; for efficacy relative to NDP-α-MSH, MC3-R: cAMP response ratio to NDP-α-MSH
# T4 construct: expressed in transfected cells; host or cells: HEK-293
# Procedure: (§3) Functional evaluation of peptides at melanocortin receptors was performed by measuring the accumulation of intracellular cAMP in HEK-293 cells expressing hMC3-R, hMC4-R or hMC5-R, and in B-16 mouse melanoma cells expressing MC1-R. Cells suspended in Earle's Balanced Salt Solution containing 10 mM HEPES (pH 7.5), 5 mM MgCl2, 1 mM glutamine, 0.5% albumin and 0.3 mM 3-isobutyl-1-methyl-xanthine, a phosphodiesterase inhibitor, were plated in 96 well plates at a density of 0.5×10^5 cells per well. Cells were incubated with the test peptides in the presence or absence of NDP-α-MSH for 1 hour at 37° C. cAMP levels in the cell lysates were measured using an EIA kit (Amersham). Data analysis and EC50 values were determined using nonlinear regression analysis with Prism Graph-Pad software.
# (§4) The agonist/antagonist status with respect to MC1-R, MC4-R and MC5-R of certain peptides of the invention was determined. Antagonistic activity was determined by measuring the inhibition of α-MSH-induced or NDP-α-MSH-induced cAMP levels following exposure to the peptides as in the preceding descriptions.
# [3] = molecular target: T5, MC1-R (B-16 mouse melanoma cells) (Mus musculus, UniProt Q01727); experiment: Competitive inhibition binding assay using [I125]-NDP-α-MSH, MC1-R; settings: radioligand [I125]-NDP-α-MSH, B-16 mouse melanoma membranes
# T5 construct: B-16 mouse melanoma cells (containing MC1-R); endogenous in cells; host or cells: B-16 mouse melanoma cells
# Procedure: The assay mixture was incubated for 60 minutes at 37° C., then filtered and the membranes washed three times with ice cold phosphate buffered saline. The filter was dried and counted in a gamma counter for remaining radioactivity bound to the membranes. […] Each assay was conducted in triplicate.
# male Sprague-Dawley rats = experiment: Penile erection induction in male rats; type: in vivo, rat; settings: 1000 μg/kg IV, groups of 6 rats, one hour observation
# Procedure: The ability of peptides to induce penile erection (PE) in male rats was evaluated with selected peptides. Male Sprague-Dawley rats weighing 200-250 g were kept on a 12 hour on/off light cycle with food and water ad libitum. All behavioral studies were performed between 10 a.m. and 5 p.m. Groups of 4-8 rats were administered peptides at a variety of doses via an intravenous (IV) route, and may alternatively be administered peptide by an intracerebroventricular (ICV) route. Immediately after treatment, rats were placed into individual polystyrene cages (27 cm long, 16 cm wide, and 25 cm high) for behavioral observation. […] For rats administered peptide by an ICV routes, rats are observed for two hours.
# Selected peptides were tested as in Example 5. Peptide was administered by IV routes, and used at dose levels ranging from 1 μg/kg to 1000 μg/kg.
# [4] = molecular target: T5, MC1-R (B-16 mouse melanoma cells); experiment: cAMP functional assay for agonist/antagonist status, MC1-R; type: cell-based; settings: for EC50: cAMP accumulation; for agonist/antagonist status as to MC1-R: cAMP assay; for efficacy relative to NDP-α-MSH, MC1-R: cAMP response ratio to NDP-α-MSH
# Procedure: Data analysis and EC50 values were determined using nonlinear regression analysis with Prism Graph-Pad software.
# The agonist/antagonist status with respect to MC1-R, MC4-R and MC5-R of certain peptides of the invention was determined.
# hMC4-R (HEK-293 cells) = molecular target: T6, hMC4-R (HEK-293 cells) (Homo sapiens, UniProt P32245); experiment: cAMP functional assay for agonist/antagonist status, MC4-R; type: cell-based; settings: for EC50: cAMP accumulation; for agonist/antagonist status as to MC4-R: cAMP assay; for efficacy relative to NDP-α-MSH, MC4-R: cAMP response ratio to NDP-α-MSH
# T6 construct: expressed in transfected cells; host or cells: HEK-293
# Procedure: as §3, §4
# Evaluation of the molecules to elicit a functional response in HEK-293 cells expressing hMC4-R for agonistic activity was done by measuring the accumulation of intracellular cAMP following treatment. Confluent HEK-293 cells over-expressing MC4-R receptors were detached by enzyme free cell suspension buffer. Cells were suspended in Earle's Balanced Salt Solution containing 10 mM HEPES (pH 7.5), 1 mM MgCl2, 1 mM glutamine, 0.5% albumin and 0.3 mM 3-isobutyl-1-methyl-[…]. The cells were plated in a 96 well plate at a density of 0.5×10^5 cells per well and pre-incubated for 60 minutes. The cells were then challenged with the test peptides dissolved in dimethylsulfoxide (DMSO) at a concentration range of 0.05-5000 nM in a total assay volume of 200 μL for 1 hour at 37° C. The concentration of DMSO was held at 1% in the assay mixture. NDP-α-MSH was used as the reference agonist. At the end of the incubation period the cells were disrupted by the addition of 50 μL lysis buffer from the cAMP EIA kit (Amersham). Complete rupture of the cells was ensured by pipetting the cells. cAMP levels in the cell lysates were measured after appropriate dilution using the EIA kit (Amersham) method. Data analysis and EC50 values were determined by using nonlinear regression analysis with the Prism Graph-Pad software.
# MC4-R [5] = molecular target: T3, MC4-R; experiment: Competitive inhibition binding assay using [I125]-NDP-α-MSH, hMC4-R; settings: radioligand [I125]-NDP-α-MSH, HEK-293 membranes; read-out: Ki (NDP-α-MSH) MC4-R
# Procedure: as §1, §2
# MC3-R [6] = molecular target: T1, MC3-R; experiment: Competitive inhibition Ki (AgRP), MC3-R; type: binding; settings: AgRP as competing ligand
# Procedure: as §2
# T5 sequence (Q01727 whole entry): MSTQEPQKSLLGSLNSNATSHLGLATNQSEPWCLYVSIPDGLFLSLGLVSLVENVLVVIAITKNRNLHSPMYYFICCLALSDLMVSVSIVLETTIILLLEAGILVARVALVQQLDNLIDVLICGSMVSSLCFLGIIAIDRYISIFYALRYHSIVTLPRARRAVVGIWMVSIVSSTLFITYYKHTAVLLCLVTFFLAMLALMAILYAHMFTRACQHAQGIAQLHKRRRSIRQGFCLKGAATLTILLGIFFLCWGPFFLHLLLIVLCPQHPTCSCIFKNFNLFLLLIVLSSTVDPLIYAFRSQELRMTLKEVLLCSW
# T3 sequence (P32245 whole entry): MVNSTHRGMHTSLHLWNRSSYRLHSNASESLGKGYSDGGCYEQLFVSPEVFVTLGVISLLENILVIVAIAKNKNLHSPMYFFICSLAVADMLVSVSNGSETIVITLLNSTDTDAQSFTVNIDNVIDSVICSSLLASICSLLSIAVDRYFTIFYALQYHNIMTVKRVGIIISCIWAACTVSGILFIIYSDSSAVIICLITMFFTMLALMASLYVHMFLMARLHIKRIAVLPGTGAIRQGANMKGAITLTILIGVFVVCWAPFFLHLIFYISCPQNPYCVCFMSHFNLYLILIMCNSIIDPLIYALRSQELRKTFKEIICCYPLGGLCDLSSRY
# T6 sequence (P32245 whole entry): as above
# T2 sequence (P33032 whole entry): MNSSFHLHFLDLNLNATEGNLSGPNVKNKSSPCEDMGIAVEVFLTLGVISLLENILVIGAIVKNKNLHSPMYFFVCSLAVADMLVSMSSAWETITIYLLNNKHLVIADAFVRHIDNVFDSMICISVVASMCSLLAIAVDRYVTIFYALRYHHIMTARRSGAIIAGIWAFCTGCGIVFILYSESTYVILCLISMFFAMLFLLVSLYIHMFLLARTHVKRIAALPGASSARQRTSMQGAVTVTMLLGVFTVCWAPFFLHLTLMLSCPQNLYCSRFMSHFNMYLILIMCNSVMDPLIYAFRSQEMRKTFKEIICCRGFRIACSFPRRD
# T4 sequence (P41968 whole entry): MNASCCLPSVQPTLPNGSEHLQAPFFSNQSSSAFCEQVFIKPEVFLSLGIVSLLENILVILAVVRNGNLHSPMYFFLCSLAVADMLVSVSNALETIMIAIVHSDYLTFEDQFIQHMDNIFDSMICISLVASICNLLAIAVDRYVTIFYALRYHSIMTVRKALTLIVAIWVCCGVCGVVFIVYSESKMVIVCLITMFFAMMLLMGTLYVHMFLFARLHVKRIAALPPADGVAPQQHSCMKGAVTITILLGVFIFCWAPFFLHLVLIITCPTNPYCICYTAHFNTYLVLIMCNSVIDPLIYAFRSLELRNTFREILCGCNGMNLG
# T1 sequence (P41968 whole entry): as above
SMILES,Ki (MC3-R [1]) [µM],Ki (hMC5-R) [µM],Ki (MC4-R [2]) [µM],EC50 (hMC3-R (HEK-293 cells)) [µM],agonist/antagonist status as to MC3-R (hMC3-R (HEK-293 cells)),"efficacy relative to NDP-α-MSH, MC3-R (hMC3-R (HEK-293 cells))",Ki [3] [µM],rats exhibiting at least one PE (male Sprague-Dawley rats) [%],EC50 [4] [µM],agonist/antagonist status as to MC1-R [4],"efficacy relative to NDP-α-MSH, MC1-R [4]",EC50 (hMC4-R (HEK-293 cells)) [µM],agonist/antagonist status as to MC4-R (hMC4-R (HEK-293 cells)),"efficacy relative to NDP-α-MSH, MC4-R (hMC4-R (HEK-293 cells))",Ki (MC4-R [5]) [µM],Ki (MC3-R [6]) [µM]
"CC(=O)N[C@H]1CC(=O)NCCCC[C@@H](C(=O)N(C)C)NC(=O)[C@H](Cc2c[nH]c3ccccc23)NC(=O)[C@H](CCCNC(=N)N)NC(=O)[C@@H](Cc2ccccc2)NC(=O)[C@H](Cc2c[nH]cn2)NC1=O [Example 13, Ac-cyclo(-Asp-His-D-Phe-Arg-Trp-Lys)-N(CH3)2]",0.154,> 1,0.018,1.25,agonist (response ratio compared to NDP-α-MSH of 0.7 and above were classified as full agonists),1.3,0.002,100,0.151,agonist (response ratio compared to NDP-α-MSH of 0.7 and above were classified as full agonists),0.7,0.005,partial agonist (Peptides with a ratio from 0.1 to 0.7 were classified as partial agonists),0.6,0.012,
"CCNC(=O)[C@@H]1CCCCNC(=O)C[C@H](NC(C)=O)C(=O)N[C@@H](Cc2c[nH]c3ccccc23)C(=O)N[C@H](Cc2ccccc2)C(=O)N[C@@H](CCCNC(=N)N)C(=O)N[C@@H](Cc2cccc3ccccc23)C(=O)N1 [Example 14, Ac-cyclo(-Asp-Trp-D-Phe-Arg-Nal 1-Lys)-NH—CH2—CH3] (Ac-DW[dF]R[1Nal]K-NHEt; lactam 1-6 (inferred))",0.886,> 2,0.071,,inactive,,0.166,,,inactive,,0.698,agonist (response ratio compared to NDP-α-MSH of 0.7 and above were classified as full agonists),0.7,0.045,> 10
"CC(=O)N[C@H]1CC(=O)NCCCC[C@@H](C(=O)N(C)C)NC(=O)[C@H](Cc2cccc3ccccc23)NC(=O)[C@H](CCCNC(=N)N)NC(=O)[C@@H](Cc2ccccc2)NC(=O)[C@H](Cc2c[nH]c3ccccc23)NC1=O [Example 15, Ac-cyclo(-Asp-Trp-D-Phe-Arg-Nal 1-Lys)-N(CH3)2] (Ac-DW[dF]R[1Nal]K-NMe2; lactam 1-6 (inferred))",0.964,0.549,0.233,,inactive,,0.215,,,inactive,,1.54,agonist (response ratio compared to NDP-α-MSH of 0.7 and above were classified as full agonists),0.9,0.122,> 3
"CCNC(=O)[C@@H]1CCCCNC(=O)C[C@H](NC(C)=O)C(=O)N[C@@H](Cc2c[nH]cn2)C(=O)N[C@H](Cc2ccccc2)C(=O)N[C@@H](CCCNC(=N)N)C(=O)N[C@@H](Cc2cccc3ccccc23)C(=O)N1 [Example 16, Ac-cyclo(-Asp-His-D-Phe-Arg-Nal 1-Lys)-NH—CH2—CH3] (Ac-DH[dF]R[1Nal]K-NHEt; lactam 1-6 (inferred))",0.462,0.937,0.284,6.21,agonist (response ratio compared to NDP-α-MSH of 0.7 and above were classified as full agonists),0.8,0.018,,6.41,agonist (response ratio compared to NDP-α-MSH of 0.7 and above were classified as full agonists),0.9,0.5,agonist (response ratio compared to NDP-α-MSH of 0.7 and above were classified as full agonists),1.1,0.157,> 2
"CC(=O)N[C@H]1CC(=O)NCCCC[C@@H](C(=O)N(C)C)NC(=O)[C@H](Cc2cccc3ccccc23)NC(=O)[C@H](CCCNC(=N)N)NC(=O)[C@@H](Cc2ccccc2)NC(=O)[C@H](Cc2c[nH]cn2)NC1=O [Example 17, Ac-cyclo(-Asp-His-D-Phe-Arg-Nal 1-Lys)-N(CH3)2] (Ac-DH[dF]R[1Nal]K-NMe2; lactam 1-6 (inferred))",> 10,> 10,,> 1,partial agonist (Peptides with a ratio from 0.1 to 0.7 were classified as partial agonists),0.4,0.04,100,2.36,agonist (response ratio compared to NDP-α-MSH of 0.7 and above were classified as full agonists),1.0,0.091,agonist (response ratio compared to NDP-α-MSH of 0.7 and above were classified as full agonists),0.93,0.092,
"CCCC[C@H](NC(C)=O)C(=O)N[C@H]1CC(=O)NCCCC[C@@H](C(=O)NCC)NC(=O)[C@H](Cc2cccc3ccccc23)NC(=O)[C@H](CCCNC(=N)N)NC(=O)[C@@H](Cc2ccccc2)NC(=O)[C@H](Cc2c[nH]c3ccccc23)NC1=O [Example 18, Ac-Nle-cyclo(-Asp-Trp-D-Phe-Arg-Nal 1-Lys)-NH—CH2—CH3] (Ac-[Nle]DW[dF]R[1Nal]K-NHEt; lactam 2-7 (inferred))",,,0.026,1.82,partial agonist (Peptides with a ratio from 0.1 to 0.7 were classified as partial agonists),0.2,0.003,,0.397,partial agonist (Peptides with a ratio from 0.1 to 0.7 were classified as partial agonists),0.3,,partial agonist (Peptides with a ratio from 0.1 to 0.7 were classified as partial agonists),0.6,,
